The record followed here is ChEMBL document CHEMBL1157823, “Cyclopeptide Smac mimetics as antagonists of IAP proteins” (Bioorg Med Chem Lett, 2010).

SMILES strings stand for the structures.

By Ki is commonly meant a measure of affinity in units of concentration, obtained from inhibition or displacement. Low values mean tighter binding, high ones weaker binding. Broadly, the IC50 is the concentration needed to halve the response being measured. A lower IC50 goes with greater potency.

Assay [1] addresses Baculoviral IAP repeat-containing protein 2 (Homo sapiens, UniProt Q13490). Description: Binding affinity to cIAP1 BIR3 domain by fluorescence polarization assay. In general terms: In fluorescence polarisation assays a small probe gives low polarisation when free and higher when bound to something large.
A further assay deals with MDA-MB-231. Description: Cytotoxicity against human MDA-MB-231 cells after 4 days by WST-8 assay. Conditions: MDA-MB-231, 96 h. (Tetrazolium assays rely on reduction of a dye to a coloured formazan, in cell work by metabolically active cells.)
The next assay concerns SK-OV-3. Description: Cytotoxicity against human SKOV3 cells after 4 days by WST-8 assay. Particulars: SK-OV-3, 96 h.
Assay [2] deals with T1, E3 ubiquitin-protein ligase XIAP (Homo sapiens, UniProt P98170). Description: Antagonist activity at XIAP BIR3 domain assessed as restoration of caspase 9 activity by caspase-Glo 9 assay. In kind it is functional.
The target of assay [3] is T1, E3 ubiquitin-protein ligase XIAP. Kind of assay: Binding affinity to XIAP linker BIR2-BIR3 domain site 1 by fluorescence polarization assay.
For assay [4] the target is unchanged. Kind of assay: Binding affinity to XIAP linker BIR2-BIR3 domain site 2 by fluorescence polarization assay.

T1 sequence (P98170 whole entry, the tested form may be a part): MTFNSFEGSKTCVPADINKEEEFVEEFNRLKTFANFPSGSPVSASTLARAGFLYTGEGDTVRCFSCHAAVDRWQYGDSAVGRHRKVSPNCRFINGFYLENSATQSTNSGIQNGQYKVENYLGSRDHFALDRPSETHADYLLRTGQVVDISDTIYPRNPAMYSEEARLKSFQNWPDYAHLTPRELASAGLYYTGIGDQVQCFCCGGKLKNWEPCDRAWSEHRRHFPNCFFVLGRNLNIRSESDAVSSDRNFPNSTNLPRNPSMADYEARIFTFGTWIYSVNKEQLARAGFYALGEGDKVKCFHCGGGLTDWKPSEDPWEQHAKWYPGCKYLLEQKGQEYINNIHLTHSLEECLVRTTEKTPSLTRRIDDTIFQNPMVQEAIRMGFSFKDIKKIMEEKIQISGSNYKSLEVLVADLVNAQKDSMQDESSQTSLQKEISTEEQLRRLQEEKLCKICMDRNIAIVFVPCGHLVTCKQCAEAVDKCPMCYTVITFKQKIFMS
Baculoviral IAP repeat-containing protein 2, sequence (Q13490 whole entry, the tested form may be a part): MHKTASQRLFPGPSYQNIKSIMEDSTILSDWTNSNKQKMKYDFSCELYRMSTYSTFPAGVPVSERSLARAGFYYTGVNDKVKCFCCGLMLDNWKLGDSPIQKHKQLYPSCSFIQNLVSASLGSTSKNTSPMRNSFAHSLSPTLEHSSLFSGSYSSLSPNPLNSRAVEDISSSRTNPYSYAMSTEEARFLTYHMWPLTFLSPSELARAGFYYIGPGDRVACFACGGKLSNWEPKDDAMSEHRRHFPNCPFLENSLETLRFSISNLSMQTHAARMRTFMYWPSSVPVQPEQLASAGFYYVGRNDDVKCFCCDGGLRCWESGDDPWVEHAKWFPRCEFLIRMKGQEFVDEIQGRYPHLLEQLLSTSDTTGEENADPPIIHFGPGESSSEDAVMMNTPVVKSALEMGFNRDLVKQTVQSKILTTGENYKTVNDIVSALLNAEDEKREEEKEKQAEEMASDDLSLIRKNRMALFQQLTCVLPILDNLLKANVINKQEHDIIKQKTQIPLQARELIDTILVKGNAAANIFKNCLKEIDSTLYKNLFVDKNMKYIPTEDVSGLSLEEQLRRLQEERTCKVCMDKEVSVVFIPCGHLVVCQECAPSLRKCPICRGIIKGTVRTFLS

For `CN[C@@H](C)C(=O)N[C@H]1CCCCn2cc(nn2)[C@H](Cc2ccccc2)NC(=O)[C@@H]2CCCN2C(=O)[C@@H](NC(=O)[C@H](C)NC)CCCCn2cc(nn2)[C@H](Cc2ccccc2)NC(=O)[C@@H]2CCCN2C1=O`, in assay [1], the Ki was found to be 161 nM. Further, the IC50 in the assay with MDA-MB-231 was found to be 25900 nM; in the assay with SK-OV-3, 31500 nM. The Activity entry in assay [2] was “Dose-dependent effect”.
On to `CN[C@@H](C)C(=O)N[C@H]1CCCNC(=O)[C@H](Cc2ccccc2)NC(=O)[C@@H]2CCCN2C(=O)[C@@H](NC(=O)[C@H](C)NC)CCCNC(=O)[C@H](Cc2ccccc2)NC(=O)[C@@H]2CCCN2C1=O`, for which the IC50 in assay [3] was 1 nM; in assay [4], 481 nM; in the assay with MDA-MB-231, 4600 nM; with SK-OV-3, 15900 nM. This compound also had an inhibition constant (Ki) in assay [1] of 84 nM. Besides, the Activity entry in assay [2] was “Dose-dependent effect”.
As to `CN[C@@H](C)C(=O)N[C@H]1CCCCn2cc(nn2)[C@H](c2ccccc2)NC(=O)[C@@H]2CCCN2C(=O)[C@@H](NC(=O)[C@H](C)NC)CCCCn2cc(nn2)[C@H](c2ccccc2)NC(=O)[C@@H]2CCCN2C1=O`, in assay [2], the Activity entry was “Dose-dependent effect”.
